In brackets after ≈: the same amount, converted by molar mass. *1 amine or outer side, *2 acyl side, *3 side chain or, on linkers, in order; H or OH if unused. Where a SMILES comes first, the peptide text is derived from it. Bridges are numbered along the chain shown (N, C = ends). [ ]: non-standard residue; d: D form. The star is where a group is joined. Benzoyl(3-Ph) = O=C(c1cccc(-c2ccccc2)c1)*; Benzoyl(4-hexyl) = CCCCCCc1ccc(C(=O)*)cc1; Hexanoyl(6-Ph) = O=C(CCCCCc1ccccc1)*; X2 = CCCCCOc1cccc(C(=O)*)c1; dOrn = NCCC[C@@H](N)C(=O)O; NH(2-ClPh) = Clc1ccccc1N*; hSer = N[C@@H](CCO)C(=O)O; Octanoyl = CCCCCCCC(=O)*; Dab = NCC[C@H](N)C(=O)O; CO = O=C([*:1])[*:2]
Columns and labels:
A. baumannii ATCC 19606 = test: microbe, parasite or virus in culture
Experimental: (§1) All compounds synthesised in this study were assessed for their minimum inhibitory concentrations (MIC, mg/L) by broth microdilution assay against five antibiotic-sensitive and resistant ATCC reference strains covering the Gram-negative ESKAPE pathogens (Escherichia coli, Klebsiella pneumoniae, A. baumannii, and P. aeruginosa) (Table 1, Table 2 and Table 3). Staphylococcus aureus was also included as a representative Gram-positive bacterial strain. […] Polymyxin B 1, colistin 2, vancomycin and gentamicin were used as positive inhibitor comparator compounds. Compounds were counter-screened against human proximal tubular epithelial cells (HK-2), using LDH release as a general indicator of cellular toxicity.

E. coli ATCC 25922 = test: microbe, parasite or virus in culture
Experimental: as §1

K. pneumoniae ATCC 13833 = test: microbe, parasite or virus in culture
Experimental: as §1

[1] = system: K. pneumoniae ATCC 700603; test: microbe, parasite or virus in culture
Experimental: as §1

K. pneumoniae BAA 2146 = test: microbe, parasite or virus in culture
Experimental: as §1

P. aeruginosa ATTC 27853 = test: microbe, parasite or virus in culture
Experimental: as §1

S. aureus ATCC 25923 = test: microbe, parasite or virus in culture
Experimental: as §1

in vitro = conditions: human
Experimental: as §1
Cytotoxicity to human kidney proximal tubular epithelial cell line, HK-2 (ATCC CRL-2190, sourced from ATCC; Manassas, VA, USA) was determined using the LDH assay as previously described. In brief, HK-2 cells were seeded as 2000 cells/well in black-walled clear bottom 384-well tissue culture treated plates (Corning, catalogue No. 3712) in DMEM/F12 medium (Gibco® 10565-042) containing 10% of Fetal Bovine Serum (FBS, Gibco® 10099-141) and incubated for 24 h at 37 °C, 5% CO2. Compounds were then added into each well with a concentration series from 300 µM to 2.3 µM in 2-fold dilutions. Colistin and polymyxin B were used as controls and tested at a final concentration range of 1 mM to 7.8 µM. The cells were incubated with the compounds for 24 h at 37 °C, 5% CO2. After the incubation, 5 µL of culture medium was added to 45 µL of LDH assay buffer (Biovision, K313-500) and incubated for 30 min at room temperature. The absorbance (ABS) was then read at 450 nm using a Polar Star Omega plate reader. The data was analysed by Prism 6 software (GraphPad Software, La Jolla, CA, USA). Results were calculated using the following equation: cytotoxicity %= (ABSsamples − ABSuntreated/ABS1%Triton X-100 − ABSuntreated) × 100.

SMILES	MIC A. baumannii ATCC 19606 (A. baumannii ATCC 19606; ATCC 19606, 18 h) [µg/mL]	MIC E. coli ATCC 25922 (E. coli ATCC 25922; ATCC 25922, 18 h) [µg/mL]	MIC K. pneumoniae ATCC 13833 (K. pneumoniae ATCC 13833; ATCC 13833, 18 h) [µg/mL]	MIC K. pneumoniae ATCC 700603 ([1]; ATCC 700603, 18 h) [µg/mL]	MIC K. pneumoniae BAA 2146 (K. pneumoniae BAA 2146; BAA 2146, 18 h) [µg/mL]	MIC P. aeruginosa ATTC 27853 (P. aeruginosa ATTC 27853; ATTC 27853, 18 h) [µg/mL]	MIC S. aureus ATCC 25923 (S. aureus ATCC 25923; ATCC 25923, 18 h) [µg/mL]	CC50 at 24 h (in vitro) [µM]	MIC A. baumannii ATCC 19606 (A. baumannii ATCC 19606; broth microdilution, 18 h) [µg/mL]	MIC E. coli ATCC 25922 (E. coli ATCC 25922; broth microdilution, 18 h, 37 °C) [µg/mL]	MIC K. pneumoniae ATCC 13833 (K. pneumoniae ATCC 13833; broth microdilution, 18 h) [µg/mL]	MIC K. pneumoniae ATCC 700603 ([1]; ESBL strain, broth microdilution, 18 h) [µg/mL]	MIC K. pneumoniae BAA 2146 (K. pneumoniae BAA 2146; NDM-1 positive strain, broth microdilution, 18 h) [µg/mL]	MIC P. aeruginosa ATTC 27853 (P. aeruginosa ATTC 27853; broth microdilution, 18 h) [µg/mL]	MIC S. aureus ATCC 25923 (S. aureus ATCC 25923; Gram-positive strain, broth microdilution, 18 h) [µg/mL]
CC(C)C[C@@H]1NC(=O)[C@@H](Cc2ccccc2)NC(=O)[C@H](CCN)NC(=O)[C@@H](NC(=O)[C@H](CCN)NC(=O)[C@@H](NC(=O)CCCCCc2ccccc2)[C@@H](C)O)CCNC(=O)[C@H]([C@@H](C)O)NC(=O)[C@H](CCN)NC(=O)[C@H](CCN)NC1=O [Compound 13] ({Hexanoyl(6-Ph)}-T[Dab][Dab][Dab][dF]L[Dab][Dab]T; lactam 3-C)	8 (≈ 7.03 µM)	1 (≈ 0.879 µM)	8 (≈ 7.03 µM)	2 (≈ 1.76 µM)	1 (≈ 0.879 µM)	1 (≈ 0.879 µM)	>32	189							
CC(C)C[C@@H]1NC(=O)[C@@H](Cc2ccccc2)NC(=O)[C@H](CCN)NC(=O)[C@@H](NC(=O)[C@H](CCN)NC(=O)[C@@H](NC(=O)Nc2ccccc2Cl)[C@@H](C)O)CCNC(=O)[C@H]([C@@H](C)O)NC(=O)[C@H](CCN)NC(=O)[C@H](CCN)NC1=O [Compound 15] ({NH(2-ClPh)-CO}-T[Dab][Dab][Dab][dF]L[Dab][Dab]T; lactam 3-C)								206	>32	32 (≈ 28.7 µM)	>32	32 (≈ 28.7 µM)	32 (≈ 28.7 µM)	1 (≈ 0.895 µM)	>32
CC(C)C[C@@H]1NC(=O)[C@@H](Cc2ccccc2)NC(=O)[C@H](CCN)NC(=O)[C@@H](NC(=O)[C@H](CCN)NC(=O)[C@@H](NC(=O)c2cccc(-c3ccccc3)c2)[C@@H](C)O)CCNC(=O)[C@H]([C@@H](C)O)NC(=O)[C@H](CCN)NC(=O)[C@H](CCN)NC1=O [Compound 14] ({Benzoyl(3-Ph)}-T[Dab][Dab][Dab][dF]L[Dab][Dab]T; lactam 3-C)	>32	8 (≈ 7 µM)	>32	32 (≈ 28 µM)	16 (≈ 14 µM)	2 (≈ 1.75 µM)	>32	182							
CCCCCCCC(=O)N[C@H](C(=O)N[C@@H](CCO)C(=O)N[C@H]1CCNC(=O)[C@H]([C@@H](C)O)NC(=O)[C@H](CCN)NC(=O)[C@H](CCN)NC(=O)[C@H](CC(C)C)NC(=O)[C@@H](Cc2ccccc2)NC(=O)[C@H](CCN)NC1=O)[C@@H](C)O [Compound 37] (Octanoyl-T[hSer][Dab][Dab][dF]L[Dab][Dab]T; lactam 3-C)	>32	16 (≈ 14.7 µM)	>32	>32	>32	>32	>32	271							
CCCCCCc1ccc(C(=O)N[C@H](C(=O)N[C@@H](CCN)C(=O)N[C@H]2CCNC(=O)[C@H]([C@@H](C)O)NC(=O)[C@H](CCN)NC(=O)[C@H](CCN)NC(=O)[C@H](CC(C)C)NC(=O)[C@@H](Cc3ccccc3)NC(=O)[C@H](CCN)NC2=O)[C@@H](C)O)cc1 [Compound 12] ({Benzoyl(4-hexyl)}-T[Dab][Dab][Dab][dF]L[Dab][Dab]T; lactam 3-C)	32 (≈ 27.8 µM)	2 (≈ 1.74 µM)	16 (≈ 13.9 µM)	4 (≈ 3.47 µM)	2 (≈ 1.74 µM)	1 (≈ 0.868 µM)	8 (≈ 6.95 µM)	46							
CCCCCOc1cccc(C(=O)N[C@H](C(=O)N[C@@H](CCN)C(=O)N[C@H]2CCNC(=O)[C@H]([C@@H](C)O)NC(=O)[C@H](CCN)NC(=O)[C@H](CCN)NC(=O)[C@H](CC(C)C)NC(=O)[C@@H](Cc3ccccc3)NC(=O)[C@H](CCN)NC2=O)[C@@H](C)O)c1 [Compound 11] (X2-T[Dab][Dab][Dab][dF]L[Dab][Dab]T; lactam 3-C)	>32	8 (≈ 6.94 µM)	>32	32 (≈ 27.7 µM)	8 (≈ 6.94 µM)	2 (≈ 1.73 µM)	>32	93							
CCCCCCCC(=O)N[C@@H](CCN)C(=O)N[C@H](C(=O)N[C@H]1CCNC(=O)[C@H]([C@@H](C)O)NC(=O)[C@H](CCN)NC(=O)[C@H](CCN)NC(=O)[C@H](CC(C)C)NC(=O)[C@@H](Cc2ccccc2)NC(=O)[C@H](CCN)NC1=O)[C@@H](C)O [Compound 9] (Octanoyl-[Dab]T[Dab][Dab][dF]L[Dab][Dab]T; lactam 3-C)	>32	>32	>32	>32	>32	32 (≈ 29.4 µM)	>32	79							

More lines, main results first:

MIC A. baumannii ATCC 19606 (A. baumannii ATCC 19606; ATCC 19606, 18 h) [µg/mL]	MIC E. coli ATCC 25922 (E. coli ATCC 25922; ATCC 25922, 18 h) [µg/mL]	MIC K. pneumoniae ATCC 13833 (K. pneumoniae ATCC 13833; ATCC 13833, 18 h) [µg/mL]	MIC K. pneumoniae ATCC 700603 ([1]; ATCC 700603, 18 h) [µg/mL]	MIC K. pneumoniae BAA 2146 (K. pneumoniae BAA 2146; BAA 2146, 18 h) [µg/mL]	MIC P. aeruginosa ATTC 27853 (P. aeruginosa ATTC 27853; ATTC 27853, 18 h) [µg/mL]	MIC S. aureus ATCC 25923 (S. aureus ATCC 25923; ATCC 25923, 18 h) [µg/mL]	SMILES	CC50 at 24 h (in vitro) [µM]	MIC A. baumannii ATCC 19606 (A. baumannii ATCC 19606; broth microdilution, 18 h) [µg/mL]	MIC E. coli ATCC 25922 (E. coli ATCC 25922; broth microdilution, 18 h, 37 °C) [µg/mL]	MIC K. pneumoniae ATCC 13833 (K. pneumoniae ATCC 13833; broth microdilution, 18 h) [µg/mL]	MIC K. pneumoniae ATCC 700603 ([1]; ESBL strain, broth microdilution, 18 h) [µg/mL]	MIC K. pneumoniae BAA 2146 (K. pneumoniae BAA 2146; NDM-1 positive strain, broth microdilution, 18 h) [µg/mL]	MIC P. aeruginosa ATTC 27853 (P. aeruginosa ATTC 27853; broth microdilution, 18 h) [µg/mL]	MIC S. aureus ATCC 25923 (S. aureus ATCC 25923; Gram-positive strain, broth microdilution, 18 h) [µg/mL]
16 (≈ 14.3 µM)	1 (≈ 0.895 µM)	>32	4 (≈ 3.58 µM)	4 (≈ 3.58 µM)	4 (≈ 3.58 µM)	>32	CCCCCCCC(=O)N[C@H](C(=O)N[C@H](CCCCN)C(=O)N[C@H]1CCNC(=O)[C@H]([C@@H](C)O)NC(=O)[C@H](CCN)NC(=O)[C@H](CCN)NC(=O)[C@H](CC(C)C)NC(=O)[C@@H](Cc2ccccc2)NC(=O)[C@H](CCN)NC1=O)[C@@H](C)O [Compound 43] (Octanoyl-T[dK][Dab][Dab][dF]L[Dab][Dab]T; lactam 3-C)	> 300							
>32	>32	>32	32 (≈ 27.2 µM)	>32	>32	>32	CCCCCCCC(=O)N[C@H](C(=O)N[C@@H](Cc1c[nH]c2ccccc12)C(=O)N[C@H]1CCNC(=O)[C@H]([C@@H](C)O)NC(=O)[C@H](CCN)NC(=O)[C@H](CCN)NC(=O)[C@H](CC(C)C)NC(=O)[C@@H](Cc2ccccc2)NC(=O)[C@H](CCN)NC1=O)[C@@H](C)O [Compound 46] (Octanoyl-TW[Dab][Dab][dF]L[Dab][Dab]T; lactam 3-C)	> 300							
16 (≈ 14.5 µM)	1 (≈ 0.906 µM)	32 (≈ 29 µM)	4 (≈ 3.63 µM)	1 (≈ 0.906 µM)	4 (≈ 3.63 µM)	>32	CCCCCCCC(=O)N[C@H](C(=O)N[C@H](CCCN)C(=O)N[C@H]1CCNC(=O)[C@H]([C@@H](C)O)NC(=O)[C@H](CCN)NC(=O)[C@H](CCN)NC(=O)[C@H](CC(C)C)NC(=O)[C@@H](Cc2ccccc2)NC(=O)[C@H](CCN)NC1=O)[C@@H](C)O [Compound 41] (Octanoyl-T[dOrn][Dab][Dab][dF]L[Dab][Dab]T; lactam 3-C)	> 300							
>32	4 (≈ 3.55 µM)	>32	32 (≈ 28.4 µM)	16 (≈ 14.2 µM)	16 (≈ 14.2 µM)	>32	CCCCCCCC(=O)N[C@H](C(=O)N[C@@H](Cc1c[nH]cn1)C(=O)N[C@H]1CCNC(=O)[C@H]([C@@H](C)O)NC(=O)[C@H](CCN)NC(=O)[C@H](CCN)NC(=O)[C@H](CC(C)C)NC(=O)[C@@H](Cc2ccccc2)NC(=O)[C@H](CCN)NC1=O)[C@@H](C)O [Compound 47] (Octanoyl-TH[Dab][Dab][dF]L[Dab][Dab]T; lactam 3-C)	> 300							

From article PMC6384738, “Structure-Function Studies of Polymyxin B Lipononapeptides” (Molecules, 2019)
